Experimental findings from patent publication US11136301B2, “Broad spectrum antiviral compounds and uses thereof” (The Regents Of The University Of California, priority 2015, dated 2021) are described below.

As a reminder, the IC50 is the midpoint of a concentration-inhibition curve.

A short description of series [1]: Water solubility of choline salts. It is filed as physicochemical.
The test system of series [2] is HA-tagged A3G and GFP-tagged Vif or ΔVif in 293FT cells. The series is described as follows: Immunoblot of A3G and Vif levels in transfected 293FT cells. Conditions: 16 h; for upregulation of A3G and downregulation of Vif (immunoblots, FIG. 16): 293FT cells, 50 μM. Background: In western blotting, separated proteins are transferred to a membrane and probed.
For series [3], the system named is wild-type HIV-1 (HIV-1LAI) in H9 cells (non-permissive). The series is described as follows: microbe, parasite or virus in culture. It counts as cell-based. The conditions noted are these: for antiviral activity against HIV-1 (in words): HIV-1 replication.
The subject of another series is Zika virus. The series can be described thus: Zika viral replication inhibition. Conditions: FIG. 20. It counts as cell-based.
Another series concerns Ebola virus. It counts as cell-based. Conditions: FIG. 19.
In series [4] the test system is Vif-A3G-HSP90-Cul5-CBF-β E3 ligase complex. The series can be described thus: Immunoprecipitation of IMA82-interacting proteins / E3 ligase complex. It is filed as cell-based. How it is done:
Cells were washed twice with PBS and lysed in IP lysis buffer (Thermo) or in a buffer composed of 50 mM Tris-HCl (pH 7.2), 150 mM NaCl, 1% NP-40, 10% glycerol, and protease inhibitor cocktail. Cell lysates ([…]) were incubated with 5 μl of rat anti-HA (Roche), rabbit anti-GFP (Cell Signaling), mouse anti-Hsp90 (Millipore), or rabbit anti-Cul5 (Sigma) plus 30 μl of protein A or G DYNABEADS® (Invitrogen) and rotated at RT for 2 h. The beads were washed three times with PBS containing 0.05% Tween 20. Each lysate was immunoprecipitated in triplicate and the beads were combined. Immune complexes were eluted by boiling in 5×SDS sample buffer. The proteins were separated by SDS-PAGE and analyzed by immunoblotting with antibodies to HA (A3G), GFP (Vif), Hsp90, Cul5, and CBF-β, as described above.

For series [5], the system named is A3G and Vif levels in HSP90 or Cul5 knockdown cells. The series is described as follows: Knockdown of Hsp90 and Cul5 followed by IMA82 treatment, immunoblot.
For series [6], the system named is polyubiquitination of A3G and Vif. The series can be described thus: Ubiquitination assay in 293FT cells. It is filed as cell-based. Conditions: 293FT cells expressing HA-A3G and GFP-Vif, 10 μM, ALLN. How it is done: Cells were incubated with or without 10 μM of IMA82, IMD55, or IMD64 for 16 h, and then with or without 10 μM of the calpain inhibitor ALLN for 4 h. The cells were washed once with PBS and lysed. Samples of 200 μg protein were immunoprecipitated by the addition of rat anti-HA (Roche) or mouse anti-GFP (Wako) antibodies (7 μg) and 50 μl protein G DYNABEADS® (Invitrogen) and rotated at RT for 2 h. The beads were washed three times with PBS containing 0.05% Tween 20 and boiled in 5×SDS sample buffer. The denatured proteins were resolved and electroblotted onto PVDF membranes. The membranes were probed with rabbit anti-ubiquitin, rabbit anti-HA, or rabbit anti-GFP antibodies, as described above.

The test system of series [7] is A3G and Vif levels in HSP90 or Cul5 knockdown cells.
For series [8], the system named is A3G, Vif, p24, HSP90 in HIV-1LAI-infected H9 and MT4 cells. The series can be described thus: Protein analysis (immunoblot) of HIV-1 infected H9 and MT4 cells. It counts as cell-based. Conditions: for HIV-1 p24 levels: 72 h. Here is the method: Non-permissive (H9) and permissive (MT4) cells were treated with 1% DMSO, IMA82, or 17-DMAG overnight and then infected with HIV-1LAI for 5 h. Cells were washed three times with PBS and cultured in medium for 72 h in the presence of the same concentrations of DMSO, IMA82, or 17-DMAG. Total cell lysates were prepared with M-PER buffer containing 0.5% Triton X-100, 150 mM NaCl, 5 mM EDTA, and protease inhibitor cocktail. Protein concentrations were determined with the DC protein assay kit (Bio-Rad). Immunoblotting was performed as described above.

Another series deals with HSP90. The series is described as follows: ViTAP (Vif inhibitor Target Affinity Purification): streptavidin affinity purification of compound-bound proteins. It counts as binding. The conditions noted are these: transfected 293FT cells, streptavidin affinity purification.
For series [9], the system named is HSP90-A3G interaction (GST-Hsp90, recombinant human A3G). The series is described as follows: In vitro binding of purified GST-HSP90 and recombinant A3G. Conditions: purified proteins, 50 μM in 1% DMSO.
The test system of series [10] is wild-type HIV-1 (HIV-1LAI) in MT-4 cells (permissive). The series is described as follows: Antiviral activity assay: wild-type HIV-1 in permissive MT4 cells, reverse transcriptase activity in culture supernatants. It counts as cell-based.
The mark [11] stands for this setting: Human immunodeficiency virus 1, H9, read-out: Antiviral activity (IC50 μM) H9 Cells, Table 4, wild-type HIV-1, non-permissive H9 cells.
Setting [12] is: Human immunodeficiency virus 1, H9, read-out: Antiviral activity (IC50 μM) H9 Cells, Table 7, wild-type HIV-1, non-permissive H9 cells.
The mark [13] stands for this setting: Human immunodeficiency virus 1, H9, read-out: IC50, anti-HIV-1 activity, non-permissive H9 cells.
[14] abbreviates: Human immunodeficiency virus 1, H9, read-out: Antiviral activity (IC50 μM) H9 cells, Table 5, wild-type HIV-1, non-permissive H9 cells.
[15] abbreviates: Human immunodeficiency virus 1, H9, read-out: Antiviral activity (IC50 μM) H9 cells, Table 8, wild-type HIV-1, non-permissive H9 cells.
Setting [16] is: Human immunodeficiency virus 1, H9, read-out: Antiviral activity (IC50 μM) H9 cells, wild-type HIV-1 (HIV-1LAI), H9 cells (non-permissive), RT activity in culture supernatants, compounds 1 to 50 μM.

SMILES strings stand for the structures. Entries after “also recorded” stand apart in the source; their conditions may differ. Where two headings read alike, the source gives them in different places.

For the molecule `COc1ccc(OC)c(-n2cc(-c3ccccc3S(=O)(=O)c3ccc(C(=O)O)cc3)nn2)c1` [Compound 5gy, 2-Hydroxy-N,N,N-trimethylethanaminium 4-((2-(1-(2,5-dimethoxyphenyl)-1H-1,2,3-triazol-4-yl)phenyl)sulfonyl)benzoate], in [1], the water solubility entry was “water-soluble”. Further, the “upregulation of A3G and downregulation of Vif (immunoblots, FIG. 16)” value in series [2] was “same mechanism as of RN-18; also recorded: same mechanism as observed for RN-18 and 1d”. In series [3], the “antiviral activity against HIV-1 (in words)” value is “potent activities”. Besides, the IC50 in [3] (setting [11]), in series [3] (setting [12]) and in [3] (setting [13]) was 0.5 µM throughout.

Turning to `COC(=O)c1ccc(Sc2ccccc2-c2cn(-c3ccc(OC)cc3OC)nn2)cc1` [Compound 4bx, Methyl 4-((2-(1-(2,4-dimethoxyphenyl)-1H-1,2,3-triazol-4-yl)phenyl)thio)benzoate], in the series with Zika virus, the Zika viral replication result is on record as “Zika viral replication inhibition”. The Ebola viral replication result with Ebola virus is listed as “Ebola viral replication inhibition”. The IC50 in series [3] (setting [14]), in [3] (setting [15]) and in [3] (setting [16]) was 2 µM in each case.

Turning to `COc1ccccc1-n1cc(-c2ccccc2S(=O)(=O)c2ccc(C(=O)O)cc2)nn1` [Compound 2gy, 2-Hydroxy-N,N,N-trimethylethanaminium 4-((2-(1-(2-methoxyphenyl)-1H-1,2,3-triazol-4-yl)phenyl)sulfonyl)benzoate], the water solubility entry in [1] is recorded as “water-soluble”. Further, the “upregulation of A3G and downregulation of Vif (immunoblots, FIG. 16)” value in series [2] was “same mechanism as of RN-18; also recorded: same mechanism as observed for RN-18 and 1d”. Also, the “antiviral activity against HIV-1 (in words)” value in series [3] was “potent activities”. In addition, the 50% inhibitory concentration (IC50) in series [3] (setting [13]) stood at 0.2 µM.

For the molecule `COc1cc(C(=O)NCCOCCOCCOCCNC(=O)CCCCC2SCC3NC(=O)NC32)ccc1NC(=O)c1ccc(Sc2ccc([N+](=O)[O-])cc2)cc1Cl` (stereo not shown) [IMA82, 2-chloro-N-(2-methoxy-4-((13-oxo-17-(2-oxohexahydro-1H-thieno[3,4-d]imidazol-4-yl)-3,6,9-trioxa-12-azaheptadecyl)carbamoyl)phenyl)-4-((4-nitrophenyl)thio)benzamide], the “HSP90-A3G interaction, FLAG-HSP90 affinity purification” value in [4] (293FT cells transfected with FLAG-HSP90 and HA-A3G, 16 h) was “inhibited interactions of HSP90 and A3G”. Besides, the “A3G association with the immunoprecipitated E3 ligase complexes” value in series [4] (293FT-A3G-Vif and 293FT-A3G-ΔVif cells, 10 μM) was “prevents APOBEC3G association; also recorded: not present”. Besides, the “A3G or Vif levels” value in series [5] (Cul5-depleted 293FT-A3G-Vif cells) is “no further effect”. Also, the A3G levels result in series [5] (control siRNA (siNT) 293FT-A3G-Vif cells) is on record as “rescue of A3G levels”. Besides, in [2] (293FT cells co-expressing HA-A3G and Vif or ΔVif), the A3G expression entry is listed as “dose-dependently restored A3G expression; also recorded: enhances APOBEC3G expression”. In series [2] (293FT cells co-expressing HA-A3G and Vif), the “Vif expression / degradation” value is given as “induces Cul5-mediated degradation of Vif; also recorded: enhanced Vif degradation; also recorded: reduces Vif expression”. In series [2] (transfected 293FT cells), the CBF-β levels result is “no effect on levels of CBF-β” and the HSP90 expression entry was “did not significantly affect expression of HSP90 protein”. In series [6], the A3G ubiquitination entry is recorded as “not observed; also recorded: reduced” and the Vif ubiquitination result is recorded as “ubiquitinated; also recorded: increased”. Also, the “A3G or Vif levels” value in series [7] is “no effect”. Also, the “viral replication (reverse transcriptase activity in supernatants)” value in series [3] (H9 cells, HIV-1LAI, up to 50 μM, 15 days) was “dose-dependently inhibited viral replication”. For the same molecule, in [8] (HIV-1-infected H9 cells), the A3G levels entry is “restored A3G levels” and the Vif levels result is reported as “decreased Vif levels”. In addition, the “HIV-1 p24 levels” value in series [8] (HIV-1LAI-infected H9 cells) is listed as “reduced”. Moreover, the “HIV-1 p24 levels” value in series [8] (HIV-1LAI-infected MT4 cells) was “not MT4 cells”. Besides, in the series on HSP90, the “co-purification of HSP90 (90 kDa protein) with the compound” value is “HSP90 is targeted; also recorded: purified a specific 90 kDa protein; also recorded: co-purified with IMA82; also recorded: specifically interacts with HSP90”. In addition, the “A3G binding to GST-HSP90” value in [9] is given as “block APOBEC3G association; also recorded: inhibited A3G binding to GST-HSP90”.

In the case of `COc1ccc(OC)c(-n2cc(-c3ccccc3S(=O)(=O)c3ccc([N+](=O)[O-])cc3)nn2)c1` [Compound 5ay, 1-(2,5-Dimethoxyphenyl)-4-(2-((4-nitrophenyl)sulfonyl)phenyl)-1H-1,2,3-triazole], the IC50 in [10] (Human immunodeficiency virus 1, MT4, Table 2, wild-type HIV-1, permissive MT4 cells, read-out: Antiviral activity (IC50 μM) MT4) is over 50 µM; in [10] (Human immunodeficiency virus 1, MT4, wild-type HIV-1 (HIV-1LAI), MT4 cells (permissive), RT activity in culture supernatants, compounds 1 to 50 μM, read-out: Antiviral activity (IC50 μM) MT4 cells), over 50 µM; in series [3] (Human immunodeficiency virus 1, H9, read-out: Antiviral activity (IC50 μM) H9, Table 2, wild-type HIV-1, non-permissive H9 cells), 1 µM; in series [3] (setting [11]), 1 µM; in series [3] (setting [12]) it was 1 µM; in series [3] (setting [14]), 1 µM. For the same molecule, the results for the half-inhibitory concentration (IC50) in series [3] (setting [15]), in series [3] (setting [16]) and in series [3] (setting [13]) were 1 µM, 1 µM and 1 to 3 µM, respectively. In addition, in the series on Ebola virus, the Ebola viral replication result is on record as “Ebola viral replication inhibition”.
